# Data from publication PMC3673949, “Small Molecule R1498 as a Well-Tolerated and Orally Active Kinase Inhibitor for Hepatocellular Carcinoma and Gastric Cancer Treatment via Targeting Angiogenesis and Mitosis Pathways” (PLoS ONE, 2013).
# Where two headings read alike, the source gives them in different places.
# Legend:
# [1] = tested on: CNE-2 xenograft; settings: CNE-2, 100 mg/kg, every 10 days, intraperitoneal injection; for Final TGI%: day of study termination
# Text: The use and care of experimental animal was approved by Institutional Animal Care and Use Committee, Roche R&D Center (China). Tumor cells were inoculated into the right flank of BALB/C nu/nu female nude mice (5∼6 weeks, 16∼18 g, obtained from Sino-British SIPPR/BK Lab. Animal Ltd, Shanghai, China) at optimal density based on our in-house validation study. After the tumor was established and reached 100∼150 mm^3, the mice were randomized into ten mice per group and received treatment according to the schedule. The tumor growth was recorded three times a week with the measurement of length (L) and width (W) by caliper, and calculated as tumor volume (TV, mm^3) = 0.5*L*W*W (mm). […] The tumor regression of individual mouse was defined - the tumor volume at the end was less than the tumor volume when treatment was initiated.
# [2] = tested on: colorectal cancer, breast cancer, melanoma, and leukemia xenografts; settings: 150∼225 mg/kg once daily per oral; cited from earlier work
# [3] = tested on: BEL-7402 xenograft; assay: Xenograft efficacy study; type: in vivo, BALB/C nu/nu nude mice
# [4] = tested on: HCCLM3 xenograft; assay: Xenograft efficacy study; type: in vivo, BALB/C nu/nu nude mice; settings: HCCLM3, 12.5 mg/kg twice a day per oral gavage
# [5] = tested on: BEL-7404 xenograft; assay: Xenograft efficacy study; type: in vivo, BALB/C nu/nu nude mice; settings: BEL-7404, 12.5 mg/kg twice a day per oral gavage
# [6] = tested on: BGC-823 xenograft; assay: Xenograft efficacy study; type: in vivo, BALB/C nu/nu nude mice; settings: BGC-823, 25 mg/kg twice a day per oral gavage
# [7] = tested on: MGC-803 xenograft; assay: Xenograft efficacy study; type: in vivo, BALB/C nu/nu nude mice; settings: MGC-803, 25 mg/kg twice a day per oral gavage
# [8] = tested on: HGC-27 xenograft; assay: Xenograft efficacy study; type: in vivo, BALB/C nu/nu nude mice; settings: HGC-27, 25 mg/kg twice a day per oral gavage
# [9] = tested on: SGC-7901 xenograft; assay: Xenograft efficacy study; type: in vivo, BALB/C nu/nu nude mice
# [10] = tested on: Raf-1; settings: cited from earlier work
# [11] = tested on: advanced and metastatic HCC; settings: first line therapy; placebo group 7.9 months; cited from earlier work
# [12] = tested on: KIT; settings: cited from earlier work
# [13] = tested on: Ret; settings: cited from earlier work
# [14] = day of study termination (Table S2)
structure (smiles),measurement,setting,value
"O=P1(N(CCCl)CCCl)NCCCO1 (centres unmarked) [Cyclophosphamide, cyclophosphamide]",Final TGI%,[1],58%
same,Final TGI%,[1]; listed as cyclophosphamide,60%
same,Body weight changes%,[1]; before vs after treatment,-2.1%
same,Tumor Regression,[1]; mice with regression/group,0/10
Cc1cc(Nc2cc(N3CCN(C)CC3)nc(/C=C/c3ccccc3)n2)n[nH]1 [ENMD-2076],TGI%,[2],~90%
"CNC(=O)c1cc(Oc2ccc(NC(=O)Nc3ccc(Cl)c(C(F)(F)F)c3)cc2)ccn1 [Sorafenib, sorafenib, reference compound]",Final TGI%,"[3]; BEL-7402, 25 mg/kg twice a day per oral gavage, day of study termination",83%
same,Body weight changes%,"[3]; BEL-7402, 25 mg/kg twice a day per oral gavage, before vs after treatment",-16%
same,Tumor Regression,"[3]; BEL-7402, 25 mg/kg twice a day per oral gavage, mice with regression/group",1/10
same,percentage of body weight loss,"[3]; BEL-7402 model, 25 mg/kg twice daily per oral, termination day",exceeded 15%
same,Final TGI%,[4]; day of study termination,71%
same,Body weight changes%,[4]; before vs after treatment,4.4%
same,Tumor Regression,[4]; mice with regression/group,0/10
same,Final TGI%,[5]; [14],75%
same,Body weight changes%,[5]; before vs after treatment,-4.2%
same,Tumor Regression,[5]; mice with regression/group,0/10
same,Final TGI%,[6]; [14],82%
same,Body weight changes%,[6]; before vs after treatment,-3.5%
same,Tumor Regression,[6]; mice with regression/group,0/10
same,Final TGI%,[7]; day of study termination,92%
same,Body weight changes%,[7]; before vs after treatment,-2.4%
same,Tumor Regression,[7]; mice with regression/group,2/10
same,Final TGI%,[8]; day of study termination,83%
same,Body weight changes%,[8]; before vs after treatment,-5.5%
same,Tumor Regression,[8]; mice with regression/group,0/10
same,Final TGI%,"[9]; SGC-7901, 25 mg/kg twice a day per oral gavage, day of study termination (Table S2)",95%
same,Body weight changes%,"[9]; SGC-7901, 25 mg/kg twice a day per oral gavage, before vs after treatment",-18%
same,Tumor Regression,"[9]; SGC-7901, 25 mg/kg twice a day per oral gavage, mice with regression/group",2/10
same,percentage of body weight loss,"[9]; SGC-7901 model, 25 mg/kg twice daily per oral, termination day",exceeded 15%
same,median survival time,[11],10.7 months
CNC(=O)c1cc(Oc2ccc(NC(=O)Nc3ccc(Cl)c(C(F)(F)F)c3)c(F)c2)ccn1 [regorafenib],IC50,[12],7 nM
same,IC50,[13],1.5 nM
